Some test systems named below: ACHN renal; HCT-116 colon; NCI-H23 lung; OVCAR-4 ovarian; OVCAR-8 ovarian; SF-268 CNS; SK-MEL-2 melanoma; SK-MEL-5 melanoma; SNB-75 CNS; SW-620 colon.
Holding throughout (experiment): DTP human tumour cell line panel, 48 h

SMILES strings stand for the structures. Several values for one entry are separate records, joined by “and”; a condition that tells them apart may be missing. Equal entries are not always repeated.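 Method: 48-hour compound exposure of cells in 96-well plates, five concentrations, linear interpolation of endpoints. Abbreviation: GI50, concentration required for 50% inhibition of growth. TGI: total growth inhibition.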

With `COC(=O)c1ccc2c(c1)nc(NC(=O)c1ccccc1)n2CCCc1ccccc1`, the GI50 was 3.75 µM in the experiment with ACHN renal; 3.06 µM in the experiment on HCT-116 colon; 5.26 µM in the experiment with NCI-H23 lung; 2.93 µM with OVCAR-4 ovarian; 4.79 µM with OVCAR-8 ovarian; 3.93 µM in the experiment on SF-268 CNS. The GI50 with SK-MEL-2 melanoma is 5.58 µM; with SK-MEL-5 melanoma, 2.13 µM; with SNB-75 CNS, 18.6 µM; with SW-620 colon it was 4.03 µM. The concentration for total growth inhibition (TGI) in the experiment with ACHN renal, in the experiment with HCT-116 colon, in the experiment on NCI-H23 lung, with OVCAR-4 ovarian, in the experiment with OVCAR-8 ovarian and with SF-268 CNS was more than 100 µM in each case. The TGI in the experiment with SK-MEL-2 melanoma was more than 100 µM; in the experiment with SK-MEL-5 melanoma, 5.87 µM; in the experiment with SNB-75 CNS, more than 100 µM; with SW-620 colon, more than 100 µM.
For `N.N.N.N.O=C([O-])CCl.O=C([O-])CCl.[Co+3].[O-][Cl+3]([O-])([O-])[O-]`, the GI50 with ACHN renal, with HCT-116 colon, with NCI-H23 lung, in the experiment with OVCAR-4 ovarian, in the experiment on OVCAR-8 ovarian and in the experiment on SF-268 CNS was more than 100 µM in each case. Further, the GI50 in the experiment with SK-MEL-2 melanoma was more than 100 µM; in the experiment with SK-MEL-5 melanoma, more than 100 µM; in the experiment with SNB-75 CNS, 61.3 µM; with SW-620 colon, more than 100 µM. Besides, the TGI in the experiment on ACHN renal, in the experiment with HCT-116 colon, in the experiment on NCI-H23 lung, in the experiment on OVCAR-4 ovarian, in the experiment with OVCAR-8 ovarian and in the experiment with SF-268 CNS was more than 100 µM each time. The TGI in the experiment with SK-MEL-2 melanoma, in the experiment on SK-MEL-5 melanoma, in the experiment on SNB-75 CNS and with SW-620 colon was more than 100 µM in each case.
Turning to `C[N+](C)(C)CC1CCCc2ccccc2C1=O` (stereo not drawn), the TGI is 9.71 µM in the experiment with ACHN renal; 3.27 µM and 8.46 µM with HCT-116 colon; 35 µM in the experiment on NCI-H23 lung; 41.2 µM in the experiment with OVCAR-4 ovarian; 12.4 µM with OVCAR-8 ovarian; 53.9 µM in the experiment with SF-268 CNS. Also, the TGI in the experiment on SK-MEL-2 melanoma was 27.2 µM; in the experiment with SK-MEL-5 melanoma, 15.5 µM; in the experiment with SNB-75 CNS, 34.3 µM; in the experiment with SW-620 colon it was 3.67 µM and 3.92 µM. In addition, the figures for the GI50 in the experiment on HCT-116 colon, in the experiment on OVCAR-4 ovarian and in the experiment with OVCAR-8 ovarian were 4.27 µM, 15.7 µM and 6.14 µM, respectively.
In the case of `O=C(CCN(C(=O)O)S(=O)(=O)c1ccc(NC(=O)c2ccccc2)cc1)Nc1ccccc1`, the TGI is more than 100 µM in the experiment with ACHN renal; more than 69.5 µM in the experiment on HCT-116 colon; more than 100 µM in the experiment on NCI-H23 lung; more than 100 µM in the experiment with OVCAR-4 ovarian; more than 100 µM with OVCAR-8 ovarian; more than 100 µM in the experiment with SF-268 CNS. Also, the TGI in the experiment on SK-MEL-2 melanoma is more than 100 µM; in the experiment with SK-MEL-5 melanoma, more than 100 µM; in the experiment on SNB-75 CNS, more than 100 µM; with SW-620 colon, more than 68 µM.
Regarding `CCOC(=O)C(C#N)C1=CC(=O)C(=O)c2ccc(OC)cc21` (stereo not drawn), the TGI with ACHN renal is 30.9 µM; in the experiment with HCT-116 colon it was 44.8 µM; with NCI-H23 lung it was 30.6 µM; in the experiment on OVCAR-4 ovarian it was 33.7 µM; in the experiment with OVCAR-8 ovarian, 54.4 µM; in the experiment with SF-268 CNS, more than 100 µM. In addition, the TGI in the experiment on SK-MEL-2 melanoma was 28.1 µM; in the experiment with SK-MEL-5 melanoma, 28.8 µM; in the experiment with SNB-75 CNS, 58.5 µM; with SW-620 colon it was 33.3 µM.
As for `Cn1cc(C2=C(c3ccc(N)cc3)C(=O)NC2=O)c2ccccc21`, the GI50 in the experiment on ACHN renal is 13.4 µM; in the experiment with HCT-116 colon, 11.3 µM; in the experiment with NCI-H23 lung, 21.6 µM; with OVCAR-4 ovarian, more than 25 µM; in the experiment with OVCAR-8 ovarian, more than 25 µM; with SF-268 CNS it was 20.1 µM. Moreover, the GI50 is 8.38 µM with SK-MEL-2 melanoma, more than 17.8 µM in the experiment on SK-MEL-5 melanoma, 0.571 µM in the experiment with SNB-75 CNS and 13.7 µM in the experiment on SW-620 colon. Further, the TGI in the experiment with ACHN renal, in the experiment with HCT-116 colon, with NCI-H23 lung, in the experiment on OVCAR-4 ovarian, in the experiment with OVCAR-8 ovarian and in the experiment on SF-268 CNS was more than 25 µM throughout. The TGI was more than 19 µM with SK-MEL-2 melanoma, more than 25 µM in the experiment with SK-MEL-5 melanoma, more than 15.2 µM in the experiment on SNB-75 CNS and more than 25 µM in the experiment on SW-620 colon.
In the case of `CCOC(=O)c1ccc(NC(=O)Oc2ccc3c(C)cc(=O)oc3c2)cc1`, the TGI with ACHN renal was more than 100 µM; with HCT-116 colon it was 82.9 µM; in the experiment with NCI-H23 lung, more than 100 µM; in the experiment with OVCAR-4 ovarian, more than 100 µM; with OVCAR-8 ovarian, more than 100 µM; with SF-268 CNS, more than 100 µM. Further, the TGI is 79 µM in the experiment on SK-MEL-2 melanoma, 29.1 µM with SK-MEL-5 melanoma, 98.1 µM in the experiment with SNB-75 CNS and more than 100 µM in the experiment on SW-620 colon.
For the molecule `Cc1cc(C)c2c(n1)sc1c(Nc3ccc(Cl)cc3)ncnc12`, the GI50 is less than 0.01 µM in the experiment with ACHN renal; less than 0.01 µM in the experiment with HCT-116 colon; less than 0.01 µM with NCI-H23 lung; more than 100 µM in the experiment with OVCAR-4 ovarian; less than 0.01 µM with OVCAR-8 ovarian; less than 0.01 µM in the experiment on SF-268 CNS. Moreover, the GI50 with SK-MEL-2 melanoma was more than 100 µM; in the experiment on SK-MEL-5 melanoma it was less than 0.0141 µM; in the experiment with SNB-75 CNS, 0.017 µM; in the experiment with SW-620 colon, less than 0.01 µM. The TGI in the experiment on ACHN renal was more than 51.2 µM; with HCT-116 colon, more than 100 µM; in the experiment on NCI-H23 lung it was more than 100 µM; with OVCAR-4 ovarian, more than 100 µM; in the experiment on OVCAR-8 ovarian it was more than 100 µM; with SF-268 CNS it was more than 100 µM. Moreover, the TGI with SK-MEL-2 melanoma is more than 100 µM; in the experiment on SK-MEL-5 melanoma, more than 100 µM; with SNB-75 CNS it was more than 26.4 µM; in the experiment on SW-620 colon it was more than 100 µM.
As for `COC(=O)C(C(=O)c1ccccc1)C(C(=O)C(=O)Nc1ccc(OC)cc1OC)C(=O)C(=O)c1ccc(C)cc1` (stereo not drawn), the TGI with ACHN renal, in the experiment on HCT-116 colon, with NCI-H23 lung, with OVCAR-4 ovarian, in the experiment on OVCAR-8 ovarian and in the experiment on SF-268 CNS was more than 100 µM each time. The TGI in the experiment on SK-MEL-2 melanoma, in the experiment with SK-MEL-5 melanoma, in the experiment with SNB-75 CNS and in the experiment on SW-620 colon was more than 100 µM in each case.
For `[N-]=[N+]=NC1(Cc2ccccc2)C(=O)c2cccc3c2N(CCC3)C1=O` (stereo not drawn), the TGI in the experiment with ACHN renal, with HCT-116 colon, in the experiment with NCI-H23 lung, in the experiment with OVCAR-4 ovarian, with OVCAR-8 ovarian and with SF-268 CNS was more than 100 µM in each case. Further, the TGI with SK-MEL-2 melanoma, in the experiment on SK-MEL-5 melanoma, in the experiment with SNB-75 CNS and with SW-620 colon was more than 100 µM throughout.
